From the supplement of paper PMC8671470

What was measured:
Details in all cases: 72 h
KCL-22 [1] = assay: cell viability (% survival relative to DMSO control, bortezomib = 0%); higher = less cytotoxic
Procedure, shortened: (§1)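 In 384-well plates pre-printed with compounds at 1, 10, 100, 1000 or 10000 nM, duplicate wells received cells from 10 AML and 5 CML lines at densities within the linear growth range. The plates stayed at 37 °C with 5% CO2 for 72 h before CellTiter-Glo luminescence was recorded. Each entry is averaged percent survival. Scaling placed vehicle at 100% and a 10 µM positive control at 0%.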

K-562 [2] = assay: as above
Procedure, shortened: as §1

THP-1 [3] = assay: as above
Procedure, shortened: as §1

ML-2 [4] = assay: as above
Procedure, shortened: as §1

KG-1 [5] = assay: as above
Procedure, shortened: as §1

HL-60 [6] = assay: as above
Procedure, shortened: as §1

SHI-1 [7] = assay: as above
Procedure, shortened: as §1

HEL [8] = assay: as above
Procedure, shortened: as §1

MOLM-13 [9] = assay: as above
Procedure, shortened: as §1

NOMO-1 [10] = assay: as above
Procedure, shortened: as §1

MV4-11 [11] = assay: as above
Procedure, shortened: as §1

KU-812 [12] = assay: as above
Procedure, shortened: as §1

KCL-22 [13] = tested on: KCL-22
Procedure, shortened: (§2)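 Each of fifteen myeloid leukaemia cell lines was seeded in RPMI 1640 at a density titrated to its linear growth range. The cells were incubated for 72 h at 37 °C and 5% CO2 with compounds at five tenfold doses from 1 to 10,000 nM, in duplicate. After ATP luminescence was normalised to vehicle and to a positive control at 10 µM, four-parameter log-logistic curves were fitted. These curves gave the IC50.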

K-562 [14] = tested on: K-562
Procedure, shortened: as §2

Mono-Mac-6 = tested on: Mono-Mac-6
Procedure, shortened: as §2

THP-1 [15] = tested on: THP-1
Procedure, shortened: as §2

ML-2 [16] = tested on: ML-2
Procedure, shortened: as §2

KG-1 [17] = tested on: KG-1
Procedure, shortened: as §2

HL-60 [18] = tested on: HL-60
Procedure, shortened: as §2

BV-173 = tested on: BV-173
Procedure, shortened: as §2

SHI-1 [19] = tested on: SHI-1
Procedure, shortened: as §2

LAMA-84 = tested on: LAMA-84
Procedure, shortened: as §2

HEL [20] = tested on: HEL
Procedure, shortened: as §2

MOLM-13 [21] = tested on: MOLM-13
Procedure, shortened: as §2

NOMO-1 [22] = tested on: NOMO-1
Procedure, shortened: as §2

MV4-11 [23] = tested on: MV4-11
Procedure, shortened: as §2

KU-812 [24] = tested on: KU-812
Procedure, shortened: as §2

HL-60 [25] = assay: cell viability (% survival relative to DMSO control); higher = less cytotoxic
Procedure, shortened: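 In 384-well plates, the full library was rescreened in duplicate on HL-60 cells in RPMI 1640 with 10% FBS, at 1–10,000 nM in five tenfold concentrations, for 72 h at 37 °C, 5% CO2. Each run also held DMSO or 100 nM of one of three metabolic inhibitors. Viability was measured by CellTiter-Glo and normalised to DMSO wells and to wells with proteasome inhibitor, present at 10 μM. Any area under the curve comes from four-parameter log-logistic fitting with drc and PharmacoGx.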

CN1CCN(CCCN2c3ccccc3Sc3ccc(C(F)(F)F)cc32)CC1 [Trifluoperazine]
cell viability [%]
Details | 1 nM | 10 nM | 100 nM | 1000 nM | 10000 nM
HEL [8] | 110 | 82.7 | 99.9 | 86.5 | 65.1
HL-60 [6] | 100 | 101 | 88.6 | 95.3 | 20.2
K-562 [2] | 113 | 89.5 | 85.1 | 92 | 0.986
KCL-22 [1] | 108 | 109 | 115 | 78.1 | 42.1
KG-1 [5] | 106 | 103 | 100 | 79.8 | 42.8
KU-812 [12] | 101 | 94 | 97.8 | 86.3 | 65.6
ML-2 [4] | 102 | 102 | 103 | 95.9 | 48.4
MOLM-13 [9] | 105 | 85.4 | 101 | 93.2 | 57.7
MV4-11 [11] | 99.5 | 79.6 | 93.8 | 89.9 | 50.3
NOMO-1 [10] | 104 | 108 | 101 | 88.3 | 81
SHI-1 [7] | 113 | 96.2 | 103 | 92.1 | 64.4
THP-1 [3] | 97.9 | 102 | 100 | 87.6 | 72.4

Details | IC50 (cell viability) [µM]
BV-173 | > 10
HEL [20] | > 10
HL-60 [18] | 5.18
K-562 [14] | 2.91
KCL-22 [13] | 3.49
KG-1 [17] | 3.54
KU-812 [24] | > 10
LAMA-84 | > 10
ML-2 [16] | 9.55
MOLM-13 [21] | > 10
MV4-11 [23] | 9.52
Mono-Mac-6 | > 10
NOMO-1 [22] | > 10
SHI-1 [19] | > 10
THP-1 [15] | > 10

cell viability [%], HL-60 [25]
Details | 0.001 µM | 0.01 µM | 0.1 µM | 1 µM | 10 µM
co-treatment: AZD3965 100 nM | 101 | 100 | 97.8 | 101 | 81.7
co-treatment: DMSO vehicle | 101.2 | 103 | 102 | 102 | 90.6
co-treatment: GSK2194069 100 nM | 94 | 101 | 96 | 101 | 70.4
co-treatment: pictilisib 100 nM | 97 | 95.9 | 108 | 97.2 | 47.7
